Tested on: 485176-168-R4-J1-PDC spheroids with HUVEC/MSC, viability
Assay: Anticancer human tumor 485176-168-R4-J1-PDC patient-derived pancreatic adenocarcinoma cell line growth inhibition [GQUAD]
Settings: for IC50: curve of first compound; for viability, T/C: stronger effect = lower value
In short: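 Tumor cells were grown as complex spheroids with HUVEC endothelial cells and mesenchymal stem cells as stroma. G-quadruplex stabilizers were combined with targeted agents over half-log dilutions from near the clinical Cmax, or from 10 microM.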

[1] = second compound 0.0316 µM, first compound 0.0316 µM
[2] = second compound 0.0316 µM, first compound 0.316 µM
[3] = second compound 0.1 µM, first compound 0.0316 µM
[4] = second compound 0.1 µM, first compound 0.316 µM
[5] = second compound 0.316 µM, first compound 0.0316 µM
[6] = second compound 0.316 µM, first compound 0.316 µM
[7] = second compound 1 µM, first compound 0.0316 µM
[8] = second compound 1 µM, first compound 0.316 µM
[9] = second compound 3.16 µM, first compound 0.0316 µM
[10] = second compound 3.16 µM, first compound 0.316 µM
[11] = second compound 10 µM, first compound 0.0316 µM
[12] = second compound 10 µM, first compound 0.316 µM
[13] = second compound 0.0316 µM, first compound 0.1 µM
[14] = second compound 0.0316 µM, first compound 1 µM
[15] = second compound 0.0316 µM, first compound 3.16 µM
[16] = second compound 0.0316 µM, first compound 10 µM
[17] = second compound 0.1 µM, first compound 0.1 µM
[18] = second compound 0.1 µM, first compound 1 µM
[19] = second compound 0.1 µM, first compound 3.16 µM
[20] = second compound 0.1 µM, first compound 10 µM
[21] = second compound 0.316 µM, first compound 0.1 µM
[22] = second compound 0.316 µM, first compound 1 µM
[23] = second compound 0.316 µM, first compound 3.16 µM
[24] = second compound 0.316 µM, first compound 10 µM
[25] = second compound 1 µM, first compound 0.1 µM
[26] = second compound 1 µM, first compound 1 µM
[27] = second compound 1 µM, first compound 3.16 µM
[28] = second compound 1 µM, first compound 10 µM
[29] = second compound 3.16 µM, first compound 0.1 µM
[30] = second compound 3.16 µM, first compound 1 µM
[31] = second compound 3.16 µM, first compound 3.16 µM
[32] = second compound 3.16 µM, first compound 10 µM
[33] = second compound 10 µM, first compound 0.1 µM
[34] = second compound 10 µM, first compound 1 µM
[35] = second compound 10 µM, first compound 3.16 µM
[36] = second compound 10 µM, first compound 10 µM
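Also: spheroids exposed to compounds for seven days before readout.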
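For viability, T/C in this document: percent viability relative to DMSO vehicle control wells as 100%.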

Question: Which results are given for Cn1ncnc1[C@H]1c2n[nH]c(=O)c3cc(F)cc(c23)N[C@@H]1c1ccc(F)cc1 + Cc1[nH]c2ccc(F)cc2c1-c1nc2c3cccnc3c3ncccc3c2[nH]1?
Answer: IC50 (second compound 0.0316 µM): > 0.316 µM; IC50 (second compound 0.1 µM): > 0.316 µM; IC50 (second compound 0.316 µM): > 0.316 µM; IC50 (second compound 1 µM): > 0.316 µM; IC50 (second compound 3.16 µM): > 0.316 µM; IC50 (second compound 10 µM): > 0.316 µM; viability, T/C (second compound 0.0316 µM, first compound 0.000999 µM): 109%; viability, T/C (second compound 0.0316 µM, first compound 0.00316 µM): 80.7%; viability, T/C (second compound 0.0316 µM, first compound 0.00999 µM): 103%; viability, T/C [1]: 86.6%; viability, T/C (second compound 0.0316 µM, first compound 0.0999 µM): 91.8%; viability, T/C [2]: 109%; viability, T/C (second compound 0.1 µM, first compound 0.000999 µM): 90.9%; viability, T/C (second compound 0.1 µM, first compound 0.00316 µM): 92.2%; viability, T/C (second compound 0.1 µM, first compound 0.00999 µM): 88.3%; viability, T/C [3]: 109%; viability, T/C (second compound 0.1 µM, first compound 0.0999 µM): 93.4%; viability, T/C [4]: 99.5%; viability, T/C (second compound 0.316 µM, first compound 0.000999 µM): 78.3%; viability, T/C (second compound 0.316 µM, first compound 0.00316 µM): 95.6%; viability, T/C (second compound 0.316 µM, first compound 0.00999 µM): 101%; viability, T/C [5]: 117%; viability, T/C (second compound 0.316 µM, first compound 0.0999 µM): 97.9%; viability, T/C [6]: 84.4%; viability, T/C (second compound 1 µM, first compound 0.000999 µM): 77.2%; viability, T/C (second compound 1 µM, first compound 0.00316 µM): 90.2%; viability, T/C (second compound 1 µM, first compound 0.00999 µM): 94.3%; viability, T/C [7]: 90.5%; viability, T/C (second compound 1 µM, first compound 0.0999 µM): 87.2%; viability, T/C [8]: 88.9%; viability, T/C (second compound 3.16 µM, first compound 0.000999 µM): 85.5%; viability, T/C (second compound 3.16 µM, first compound 0.00316 µM): 89.3%; viability, T/C (second compound 3.16 µM, first compound 0.00999 µM): 86.2%; viability, T/C [9]: 79.7%; viability, T/C (second compound 3.16 µM, first compound 0.0999 µM): 96.4%; viability, T/C [10]: 85.1%; viability, T/C (second compound 10 µM, first compound 0.000999 µM): 106%; viability, T/C (second compound 10 µM, first compound 0.00316 µM): 86.2%; viability, T/C (second compound 10 µM, first compound 0.00999 µM): 89.5%; viability, T/C [11]: 77.9%; viability, T/C (second compound 10 µM, first compound 0.0999 µM): 91.7%; viability, T/C [12]: 78.5%

Question: Which results are given for C#Cc1c(F)ccc2cc(O)cc(-c3ncc4c(N5CC6CCC(C5)N6)nc(OCC56CCCN5CC(F)C6)nc4c3F)c12 (stereo unspecified) + CN(C)c1ccc(Nc2c3ccc(NC(=O)CCN4CCCC4)cc3nc3cc(NC(=O)CCN4CCCC4)ccc23)cc1?
Answer: IC50 (second compound 0.0316 µM): > 10 µM; IC50 (second compound 0.1 µM): > 10 µM; IC50 (second compound 0.316 µM): > 10 µM; IC50 (second compound 1 µM): > 10 µM; IC50 (second compound 3.16 µM): > 10 µM; IC50 (second compound 10 µM): > 10 µM; viability, T/C [1]: 119%; viability, T/C [13]: 106%; viability, T/C [2]: 103%; viability, T/C [14]: 106%; viability, T/C [15]: 95.6%; viability, T/C [16]: 98.2%; viability, T/C [3]: 112%; viability, T/C [17]: 99.5%; viability, T/C [4]: 91.9%; viability, T/C [18]: 97.9%; viability, T/C [19]: 120%; viability, T/C [20]: 116%; viability, T/C [5]: 97.4%; viability, T/C [21]: 81.8%; viability, T/C [6]: 105%; viability, T/C [22]: 102%; viability, T/C [23]: 95.5%; viability, T/C [24]: 85.5%; viability, T/C [7]: 91.6%; viability, T/C [25]: 90.8%; viability, T/C [8]: 99.3%; viability, T/C [26]: 111%; viability, T/C [27]: 94.6%; viability, T/C [28]: 94.3%; viability, T/C [9]: 113%; viability, T/C [29]: 96.2%; viability, T/C [10]: 103%; viability, T/C [30]: 94.4%; viability, T/C [31]: 99.4%; viability, T/C [32]: 78.2%; viability, T/C [11]: 89.8%; viability, T/C [33]: 104%; viability, T/C [12]: 82.5%; viability, T/C [34]: 91.9%; viability, T/C [35]: 70.8%; viability, T/C [36]: 54.3%

Question: For COc1ccc([C@@H](O)c2cc(-c3ncnc4cc(N5CCOCC5)ccc34)c(F)cc2Cl)nn1 + CN(C)c1ccc(Nc2c3ccc(NC(=O)CCN4CCCC4)cc3nc3cc(NC(=O)CCN4CCCC4)ccc23)cc1, which IC50 (second compound 0.0316 µM) is on record?
Answer: 5.71 µM

Question: What about the IC50 (second compound 0.1 µM) of the same molecule?
Answer: 4.75 µM

Question: And the IC50 (second compound 0.316 µM)?
Answer: 4.76 µM

Question: What about the IC50 (second compound 1 µM) of the same molecule?
Answer: 4.58 µM

Question: And the IC50 (second compound 3.16 µM)?
Answer: 4.12 µM

Question: And the IC50 (second compound 10 µM)?
Answer: 3.13 µM

Question: What about the viability, T/C [1] of the same molecule?
Answer: 97.4%

Question: And the viability, T/C [13]?
Answer: 96.6%

Question: What about the viability, T/C [2] of the same molecule?
Answer: 96.1%

Question: And the viability, T/C [14]?
Answer: 82.3%

Question: And the viability, T/C [15]?
Answer: 70.9%

Question: What about the viability, T/C [16] of the same molecule?
Answer: 31.4%

Question: What about the viability, T/C [3] of the same molecule?
Answer: 97.6%

Question: And the viability, T/C [17]?
Answer: 98.4%

Question: And the viability, T/C [4]?
Answer: 89.1%

Question: And the viability, T/C [18]?
Answer: 80.5%

Question: What about the viability, T/C [19] of the same molecule?
Answer: 60.6%

Question: What about the viability, T/C [20] of the same molecule?
Answer: 30.7%

Question: What about the viability, T/C [5] of the same molecule?
Answer: 87%

Question: What about the viability, T/C [21] of the same molecule?
Answer: 92.2%

Question: And the viability, T/C [6]?
Answer: 109%

Question: What about the viability, T/C [22] of the same molecule?
Answer: 75.6%

Question: What about the viability, T/C [23] of the same molecule?
Answer: 62.9%

Question: And the viability, T/C [24]?
Answer: 30.6%

Question: What about the viability, T/C [7] of the same molecule?
Answer: 106%

Question: And the viability, T/C [25]?
Answer: 91.8%

Question: What about the viability, T/C [8] of the same molecule?
Answer: 100%

Question: And the viability, T/C [26]?
Answer: 84.1%

Question: And the viability, T/C [27]?
Answer: 60.9%

Question: What about the viability, T/C [28] of the same molecule?
Answer: 27.1%

Question: What about the viability, T/C [9] of the same molecule?
Answer: 108%

Question: What about the viability, T/C [29] of the same molecule?
Answer: 107%

Question: What about the viability, T/C [10] of the same molecule?
Answer: 81.4%

Question: What about the viability, T/C [30] of the same molecule?
Answer: 74.9%

Question: What about the viability, T/C [31] of the same molecule?
Answer: 57.9%

Question: What about the viability, T/C [32] of the same molecule?
Answer: 31.8%

Question: And the viability, T/C [11]?
Answer: 77.6%

Question: And the viability, T/C [33]?
Answer: 87.5%

Question: What about the viability, T/C [12] of the same molecule?
Answer: 73.7%

Question: And the viability, T/C [34]?
Answer: 61.9%

Question: What about the viability, T/C [35] of the same molecule?
Answer: 52.4%

Question: What about the viability, T/C [36] of the same molecule?
Answer: 23.8%
